Test results taken from patent publication US8003570B2, “Composition and method for killing nematodes and weeds in soils” (priority 2006, dated 2011).

Key:
Assay type in all cases: in vivo
[1] = system: nematodes; assay: Example II field trial: soil nematode population and root infection
Description: (§1) Field trials were conducted in Florida where tomatoes are grown under a plastic mulch and an irrigation system, called “T” tapes, which is used to irrigate the crop under the plastic mulch. Design of the experiment were three rows of a standard methyl bromide applications as the smallest replication. Four such sets of three rows were used as replicated applications. There was a zero treatment. Methyl bromide gas used at a 400 pounds per acre basis as the control and the compositions A, B, C. and D were used at a 5 liters per acre basis. Composition A was injected through the “T” tape one day after methyl bromide was injected.
(§2) The plants growing in the middle rows only of these three rows, were used to collect data. In the middle rows, 14 plants were randomly selected for measuring. The height of the plants were collected at 30 days. Starting at fruit harvest, fruits collected from these 14 plants were cumulatively added to give the total production data. At the end of harvest these plants were carefully dug up and roots carefully washed to weigh the total roots and also measure the degree of infection in the roots. Soil samples were also collected from the holes where the plants were dug up and analyzed for soil nematode population. Finally, all nut sedge plants that came through the plastic mulch in the entire 150-yard middle rows were counted as a “strike”, a degree of insufficient kill of the rhizomes.
(§3) In this experiment, methyl bromide was applied at full dose of 400 pounds per acre of the gas and the treatments used 200 pounds of methyl bromide per acre alone and with 5 liters of composition A per acre, 100 pounds of methyl bromide alone and with composition A at 5 liters per acre, 50 pounds of methyl bromide with 5 liters of composition A and the last treatment of 5 liters of composition A per acre by itself. Tomatoes were planted 20 days after methyl bromide was injected under the plastic mulch. Composition A was injected through the “T” tape one day after methyl bromide was injected. The design of Experiment II was the same as in Experiment I, and the data collected were as in the Experiment I. The results of this experiment are shown in Table II.

[2] = system: nut sedge rhizomes; assay: Example 1 field trial in Florida: nut sedge strikes through plastic mulch; conditions: methyl bromide 400 pounds per acre
Description: as §1
The plants growing in the middle rows only of these three rows, were used to collect data. In the middle rows, 14 plants were randomly selected for measuring. The height of the plants were collected at 30 days. Starting at fruit harvest, fruits collected from these 14 plants were cumulatively added to give the total production data. […] Soil samples were also collected from the holes where the plants were dug up and analyzed for soil nematode population. Finally, all nut sedge plants that came through the plastic mulch in the entire 150-yard middle rows were counted as a “strike”, a degree of insufficient kill of the rhizomes.

[3] = system: tomatoes; assay: Example II field trial, methyl bromide dose reduction with or without composition A: tomato growth and production; conditions: M.B. 50 lbs. alone
[4] = system: tomatoes; assay: as above
Description: as §1, §2, §3

[5] = system: tomatoes; assay: Example 1 field trial in Florida, tomatoes under plastic mulch: plant height, production, root weight; conditions: methyl bromide 400 pounds per acre, compositions 5 liters per acre
Description: as §1, §2

[6] = system: nematodes; assay: Example 1 field trial in Florida: soil nematode population and root infection; conditions: methyl bromide 400 pounds per acre
Description: as §1, §2

[7] = system: nut sedge rhizomes; assay: Example II field trial: nut sedge strikes
Description: as §1, §2, §3

CBr [Methyl Bromide, Methyl bromide]
Infection in Roots ([1]; M.B. 50 lbs. alone): high | Soil Nematode ([1]; M.B. 50 lbs. alone): 16,000 | Infection in Roots ([1]; M.B. 100 lbs. per acre alone): high | Soil Nematode ([1]; M.B. 100 lbs. per acre alone): 2200/10 gr. | Infection in Roots ([1]; M.B. 200 lbs. per acre alone): slight | Soil Nematode ([1]; M.B. 200 lbs. per acre alone): 1056/10 gr. | Infection in Roots ([1]; M.B. 400 lbs per acre): zero | Soil Nematode ([1]; M.B. 400 lbs per acre): zero | efficacy in controlling the weeds ([2]; Example 1 discussion): same efficacy in controlling the weeds as composition A | Live nut sedge in 150 yards ([2]; shoots piercing plastic mulch in 150-yard middle rows, compositions 5 liters per acre): 12/150 strikes″. | Height at 30 Days [3]: 2 ft. | Production Per Plant [3]: 4 lbs. | Weight of Roots [3]: 60 | Height at 30 Days ([4]; M.B. 100 lbs. per acre alone): 2.2 ft. | Production Per Plant ([4]; M.B. 100 lbs. per acre alone): 5.1 lbs. | Weight of Roots ([4]; M.B. 100 lbs. per acre alone): 90 gr. | Height at 30 Days ([4]; M.B. 200 lbs. per acre alone): 2.7 ft. | Production Per Plant ([4]; M.B. 200 lbs. per acre alone): 6.1 lbs. | Weight of Roots ([4]; M.B. 200 lbs. per acre alone): 120 gr. | Height at 30 Days ([4]; M.B. 400 lbs per acre): 3 ft. | Production Per Plant ([4]; M.B. 400 lbs per acre): 8.6 lbs. | Weight of Roots ([4]; M.B. 400 lbs per acre): 170 gr. | Weight of Roots ([5]; end of harvest): 165 gr. | Height at 30 Days [5]: 2.6 feet | Production Per Plant [5]: 16 lbs. | nematode control in the soil ([6]; Example 1 discussion): superior to compositions A, B, C and D | Soil Nematode ([6]; soil at end of harvest, compositions 5 liters per acre): 700/10 gr | Infection in Roots ([6]; tomato roots, end of harvest, compositions 5 liters per acre): zero | Live nut sedge in 150 yards ([7]; M.B. 50 lbs. alone): 38 strikes | Live nut sedge in 150 yards ([7]; M.B. 100 lbs. per acre alone): 28 strikes | Live nut sedge in 150 yards ([7]; M.B. 200 lbs. per acre alone): 18 strikes | Live nut sedge in 150 yards ([7]; M.B. 400 lbs per acre): 7 strikes
